Read-outs that look alike come from different tables or passages of the source.
Key:
[1] = biological target: T1, OGG1 (Homo sapiens, UniProt O15527); test: Biochemical fluorescence (fluorophore-quencher) assay of OGG1 incision rate, 8-oxoA substrate; details: for AC50: concentration giving 50% of the incision rate of OGG1 with APE1 (2 nM) control; for AC50 (μM): biochemical assay of virtual screening hits (NCI samples), Table S1
T1 construct: made in house

[2] = biological target: T2, NUDT15 (Homo sapiens, UniProt Q9NV35); test: Selectivity screen, malachite green assay; type: biochemical; details: compound 30 at 99 µM
T2 construct: made in house
T2 sequence (Q9NV35 1-164): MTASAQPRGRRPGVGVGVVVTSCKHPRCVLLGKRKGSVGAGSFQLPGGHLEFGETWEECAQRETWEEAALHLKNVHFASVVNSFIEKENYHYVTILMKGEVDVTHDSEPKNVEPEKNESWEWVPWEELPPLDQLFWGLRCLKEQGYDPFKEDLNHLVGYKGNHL

[3] = biological target: T3, NUDT22 (Homo sapiens, UniProt Q9BRQ3); test: Selectivity screen, malachite green assay; type: biochemical; details: compound 30 at 99 µM
T3 construct: made in house
T3 sequence (Q9BRQ3 1-303): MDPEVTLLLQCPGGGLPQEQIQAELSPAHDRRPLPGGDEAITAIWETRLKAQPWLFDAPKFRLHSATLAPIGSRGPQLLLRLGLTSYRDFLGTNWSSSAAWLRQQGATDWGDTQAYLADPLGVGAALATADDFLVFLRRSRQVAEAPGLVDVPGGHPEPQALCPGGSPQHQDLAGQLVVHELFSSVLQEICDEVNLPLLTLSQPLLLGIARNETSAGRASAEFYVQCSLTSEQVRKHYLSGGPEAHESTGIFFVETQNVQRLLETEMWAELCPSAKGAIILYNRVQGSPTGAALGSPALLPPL

[4] = biological target: T4, NUDT5 (Homo sapiens, UniProt Q9UKK9); test: Selectivity screen, malachite green assay; type: biochemical; details: compound 30 at 99 µM
T4 construct: made in house

[5] = test system: panel of DNA glycosylases and NUDIX nucleotide binding proteins; test: Selectivity: lowest IC50 in glycosylase/NUDIX panel divided by OGG1 AC50; type: biochemical; details: lowest IC50 against panel / OGG1 AC50
[6] = Kinetic solubility assay in PBS; type: physicochemical
[7] = biological target: T1, OGG1; test: NaBH4 Schiff-base trapping assay; type: biochemical; details: AP or 8-oxoG DNA substrates; 6.25 μM TH10785, 6.25 μM 30, 10 μM 38
[8] = biological target: T5, K249A mutant OGG1 (Homo sapiens, UniProt O15527, K249A); test: AP-lyase assay on radiolabeled AP-site-containing oligonucleotide (PAGE); type: biochemical; details: Figure S8
T5 construct: made in house
T5 sequence (O15527 whole entry K249A): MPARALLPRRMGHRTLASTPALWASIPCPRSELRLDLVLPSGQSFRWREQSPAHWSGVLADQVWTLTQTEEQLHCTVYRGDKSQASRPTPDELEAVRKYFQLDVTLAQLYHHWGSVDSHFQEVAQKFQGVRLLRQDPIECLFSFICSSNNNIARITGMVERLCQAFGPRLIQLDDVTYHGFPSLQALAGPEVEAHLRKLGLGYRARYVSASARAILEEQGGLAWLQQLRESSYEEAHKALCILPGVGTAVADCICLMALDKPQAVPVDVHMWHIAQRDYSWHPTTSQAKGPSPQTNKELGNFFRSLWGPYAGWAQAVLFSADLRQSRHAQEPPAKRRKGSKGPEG

[9] = Caco-2 permeability assay; type: in vitro ADME; details: human, Caco-2, pH 7.4
[10] = test system: Caco-2 cell line; test: Caco-2 permeability assay; type: in vitro ADME
[11] = biological target: T1, OGG1; test: hOGG1 activity assay on radiolabeled 8-oxoG-containing oligonucleotide (urea-PAGE); type: biochemical; details: for stimulation of OGG1 AP lyase activity (incised substrate after 4 min): 6.25 μM TH10785, 6.25 μM 30, 10 μM 38, 10 nM hOGG1; for incision mode: elimination products of AP-site cleavage
[12] = test system: BJ-RAS and BJ-TERT cell lines; test: Resazurin cell viability assay for toxicity testing; type: cell-based
[13] = biological target: T6, NTHL1 (Homo sapiens, UniProt P78549); test: Selectivity screen, glycosylase inhibition in kinetic mode; type: biochemical; details: compound 30 at 99 µM
T6 construct: made in house
T6 sequence (P78549 23-304): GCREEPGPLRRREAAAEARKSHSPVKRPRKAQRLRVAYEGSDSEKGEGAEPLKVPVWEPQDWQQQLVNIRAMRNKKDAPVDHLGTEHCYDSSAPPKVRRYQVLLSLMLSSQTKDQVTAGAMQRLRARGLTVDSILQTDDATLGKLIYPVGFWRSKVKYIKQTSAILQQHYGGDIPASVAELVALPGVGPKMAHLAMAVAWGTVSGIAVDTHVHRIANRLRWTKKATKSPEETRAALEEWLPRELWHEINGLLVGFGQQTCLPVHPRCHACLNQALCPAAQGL

[14] = biological target: T7, TDG (Homo sapiens, UniProt Q13569); test: as above; type: biochemical; details: compound 30 at 99 µM
T7 construct: made in house
T7 sequence (Q13569 whole entry, species assumed): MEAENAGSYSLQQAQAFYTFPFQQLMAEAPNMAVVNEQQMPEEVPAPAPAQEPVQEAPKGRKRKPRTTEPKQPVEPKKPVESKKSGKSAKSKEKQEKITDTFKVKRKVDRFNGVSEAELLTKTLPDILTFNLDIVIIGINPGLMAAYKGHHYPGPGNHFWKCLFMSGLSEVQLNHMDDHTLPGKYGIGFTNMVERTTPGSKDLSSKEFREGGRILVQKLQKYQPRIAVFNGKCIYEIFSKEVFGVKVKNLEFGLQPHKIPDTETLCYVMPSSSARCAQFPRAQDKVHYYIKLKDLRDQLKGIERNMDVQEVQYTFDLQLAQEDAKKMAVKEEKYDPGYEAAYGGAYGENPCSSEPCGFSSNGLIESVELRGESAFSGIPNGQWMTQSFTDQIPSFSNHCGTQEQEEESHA

[15] = biological target: T8, MPG (Homo sapiens, UniProt P29372); test: as above; type: biochemical; details: compound 30 at 99 µM
T8 construct: made in house
T8 sequence (P29372 18-298, species assumed): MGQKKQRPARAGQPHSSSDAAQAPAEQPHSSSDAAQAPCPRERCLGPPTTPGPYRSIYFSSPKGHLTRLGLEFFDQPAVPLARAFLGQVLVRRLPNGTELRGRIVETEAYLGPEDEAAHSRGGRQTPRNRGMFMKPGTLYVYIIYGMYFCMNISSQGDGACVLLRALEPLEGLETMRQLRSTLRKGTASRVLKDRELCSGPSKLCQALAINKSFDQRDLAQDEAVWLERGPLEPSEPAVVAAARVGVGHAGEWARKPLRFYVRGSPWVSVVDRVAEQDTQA

[16] = biological target: UNG (Homo sapiens, UniProt P13051); test: as above; type: biochemical; details: compound 30 at 99 µM
UNG, sequence (P13051 94-313 limits assumed): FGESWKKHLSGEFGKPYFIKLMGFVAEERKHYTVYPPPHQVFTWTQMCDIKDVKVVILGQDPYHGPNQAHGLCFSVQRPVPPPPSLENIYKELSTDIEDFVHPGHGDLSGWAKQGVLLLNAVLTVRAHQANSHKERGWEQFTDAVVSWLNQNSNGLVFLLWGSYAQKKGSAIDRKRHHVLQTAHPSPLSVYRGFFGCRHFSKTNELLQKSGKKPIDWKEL

[17] = biological target: T9, NEIL1 (Homo sapiens, UniProt Q96FI4); test: as above; type: biochemical; details: compound 30 at 99 µM
T9 construct: made in house
T9 sequence (Q96FI4 whole entry, species assumed): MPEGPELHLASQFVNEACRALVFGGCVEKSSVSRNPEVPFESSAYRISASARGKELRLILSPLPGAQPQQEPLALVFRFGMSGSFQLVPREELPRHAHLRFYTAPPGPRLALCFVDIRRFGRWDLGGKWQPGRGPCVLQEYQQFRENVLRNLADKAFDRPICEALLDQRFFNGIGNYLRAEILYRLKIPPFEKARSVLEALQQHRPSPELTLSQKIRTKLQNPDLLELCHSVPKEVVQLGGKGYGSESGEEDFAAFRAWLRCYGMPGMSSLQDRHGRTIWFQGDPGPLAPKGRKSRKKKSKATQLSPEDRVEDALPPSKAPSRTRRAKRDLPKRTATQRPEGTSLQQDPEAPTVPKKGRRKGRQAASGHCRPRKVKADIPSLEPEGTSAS

[18] = Microsomal stability assay; type: in vitro ADME, human; details: for half-life at 2 μM: human, liver microsomes
[19] = biological target: MTH1 (Homo sapiens, UniProt P36639); test: Selectivity screen; type: biochemical; details: compound 30 at 99 µM
[20] = biological target: T10, APE1 (Homo sapiens, UniProt P27695); test: Selectivity screen; type: biochemical; details: compound 30 at 99 µM
T10 construct: made in house
T10 sequence (P27695 whole entry, species assumed): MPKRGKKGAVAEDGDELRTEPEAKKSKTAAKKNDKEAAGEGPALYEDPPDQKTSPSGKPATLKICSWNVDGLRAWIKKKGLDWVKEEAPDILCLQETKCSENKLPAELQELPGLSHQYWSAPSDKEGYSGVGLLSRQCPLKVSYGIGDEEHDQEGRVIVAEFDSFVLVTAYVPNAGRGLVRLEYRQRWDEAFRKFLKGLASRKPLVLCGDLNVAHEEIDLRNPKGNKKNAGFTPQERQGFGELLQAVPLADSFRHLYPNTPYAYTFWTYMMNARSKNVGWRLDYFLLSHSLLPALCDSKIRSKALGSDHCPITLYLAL

[21] = test system: C253Y, F319A, K249W or D268A hOGG1 (active site mutants); test: Fluorophore-quencher assay with OGG1 mutants; type: biochemical, human; details: 0.25 μM of 38, 10 nM enzyme
[22] = biological target: T11, S326C hOGG1 (Homo sapiens, UniProt O15527, S326C); test: Fluorophore-quencher assay with OGG1 mutants; type: biochemical; details: 0.25 μM of 38, 50 nM S326C hOGG1
T11 construct: made in house
T11 sequence (O15527 whole entry S326C): as the sequence (O15527 whole entry K249A) above, with A249K, S326C counted along it

[23] = biological target: T12, Lys249Trp mutant of OGG1 (Homo sapiens, UniProt O15527, K249W); test: Fluorophore-quencher assay with OGG1 mutants; type: biochemical; details: standard fluorescence assay
T12 construct: made in house
T12 sequence (O15527 whole entry K249W): as the sequence (O15527 whole entry K249A) above, with A249W counted along it

[24] = Caco-2, in the presence of P-gp inhibitor (verapamil)

T1 sequence (O15527 whole entry): as the sequence (O15527 whole entry K249A) above, with A249K counted along it

With NCCc1c(-c2cccnc2)[nH]c2ccc(O)cc12 [Compound 30, 3-(2-Aminoethyl)-2-(pyridin-3-yl)-1H-indol-5-ol] the AcLE ([1]; (1.37/#heavy atoms) × pAC50) was 0.456, the AC50 ([1]; AC50 (CI95%)) was 580 nM and the “improvement of potency over 1” value ([1]; AC50 ratio) was 10 fold. The inhibition [2] was “No effect”, the inhibition [3] was “No effect” and the inhibition [4] was “No effect”. The selectivity [5] was >150-fold, the “higher aqueous solubility compared to TH10785” value [6] was 58 fold and the solubility at 2 h ([6]; phosphate-buffered saline, 25 °C, pH 7.4, aqueous buffer, kinetic from dmso stock, kinetic solubility in PBS buffer (pH 7.4), read-out: aq. solubility) was greater than 300 µM. For the same compound, the “effect on level of cross-linked product (Schiff-base formation)” value [7] was “no discernible effect”, the “restoration of AP-lyase activity of Lys249Ala mutant” value [8] was “failed to restore AP-lyase activity” and the Papp A→B at 90 min, 10 µM [9] was 0.53 ×10⁻⁶ cm/s. For the same compound, the Papp B→A at 90 min, 10 µM [9] was 2.15 ×10⁻⁶ cm/s, the efflux ratio at 90 min, 10 μM ([9]; P app (B to A) / P app (A to B)) was 4.1 and the “P app (AB)” value [10, 24] was 1.07 ×10⁻⁶ cm/s. For the same compound, the “P app (BA)” value [10, 24] was 1.87 ×10⁻⁶ cm/s, the P-gp substrate assessment ([10]; decrease of efflux with verapamil) was “P-gp substrate” and the “stimulation of OGG1 AP lyase activity (incised substrate after 4 min)” value [11] was “not significant”. The incision mode [11] was “primarily induced β-elimination and β”, the toxicity in words ([12]; BJ-TERT and BJ-RAS cells, 30 at 100 μM over several days) was “no detectable toxicity” and the toxicity ([12]; incubation in BJ-RAS and BJ-TERT cell lines) was greater than 100 µM. It also gave an inhibition at 99 µM [13] of 25%, an inhibition at 99 µM [14] of 55% and an inhibition at 99 µM [15] of 17%. The inhibition at 99 µM [16] was 31%, the inhibition at 99 µM [17] was 13% and the half-life at 2 μM ([18]; pH 7.4, human liver microsomes, read-out: t 1/2) was 3.55 h. For the same compound, the half-life at 2 μM ([18]; pH 7.4, human microsomes, read-out: microsomal half-life / metabolic stability) was greater than 3.5 h, the k el at 2 μM ([18]; pH 7.4, human liver microsomes) was 5e-05 s⁻¹ and the microsomal CLint at 2 μM ([18]; pH 7.4, human liver microsomes) was 8 µL/min/mg. For the same compound, the inhibition at 99 µM [19] was 34% and the inhibition [20] was “No effect”.
With NCCc1c(-c2cccnc2)[nH]c2cc(F)c(O)cc12 [Compound 38, 3-(2-Aminoethyl)-6-fluoro-2-(pyridin-3-yl)-1H-indol-5-ol] the AC50 ([1]; read-out: AC50 (CI95%)) was 40 nM, the “effect on level of cross-linked product (Schiff-base formation)” value [7] was “no discernible effect” and the “restoration of activity in active site mutants” value [21] was “did not restore activity”. For the same compound, the “stimulation of OGG1 AP lyase activity (incised substrate after 4 min)” value [11] was “Stimulation of OGG1 AP lyase activity was observed”, the incision mode [11] was “primarily induced β-elimination” and the “effect on AP-lyase activity of Ser326Cys mutant” value [22] was “accelerated the AP-lyase activity”. For the same compound, the “restoration of activity of Lys249Trp mutant” value [23] was “failed to restore activity”.
For NCCc1c(-c2cncc(F)c2)[nH]c2ccc(O)cc12 [Compound 41, 3-(2-Aminoethyl)-2-(5-fluoropyridin-3-yl)-1H-indol-5-ol], the “OGG1 activation, SAR result in words” value [1] was “did not significantly affect potency”, the AC50 ([1]; read-out: AC50 (CI95%)) was 740 nM and the “restoration of AP-lyase activity of Lys249Ala mutant” value [8] was “failed to restore AP-lyase activity”.
For O=C1CCCCC1C(Nc1ccccc1)c1ccccc1 (stereo not shown) [NSC 123043], the “AC50 (μM)” value [1] was “inactive”.
In the case of NC(=O)C(O)c1c[nH]c2ccccc12 (stereo not shown) [NSC 128331], the “AC50 (μM)” value [1] is reported as “inactive”.
With Cc1[nH]c2ccccc2c(=O)c1CNCc1ccccc1 [NSC 133478] the “AC50 (μM)” value [1] was “inactive”.
For O=C1Nc2ccccc2C1=NCCc1c[nH]c2ccccc12 [NSC 136042], the “AC50 (μM)” value [1] was “inactive”.
In the case of OC1(Cc2ccccn2)c2ccccc2CC1c1ccccc1 (stereo not shown) [NSC 147943], the “AC50 (μM)” value [1] is reported as “inactive”.
In the case of CCOc1ccccc1C1NC(=O)c2ccccc2N1 (stereo not shown) [NSC 158389], the “AC50 (μM)” value [1] is reported as “inactive”.
In the case of O=C1NC(c2ccccc2Cl)Nc2ccccc21 (stereo not shown) [NSC 175633], the “AC50 (μM)” value [1] is reported as “inactive”.
For CC1(C)CC(=O)C2=C(C1)Nc1ccc(Cl)cc1NC2c1ccccc1 (stereo not shown) [NSC 186216], the “AC50 (μM)” value [1] was “inactive”.
For O=C1CCCC2=C1C(c1ccncc1)Nc1ccccc1N2 (stereo not shown) [NSC 186218], the “AC50 (μM)” value [1] was “inactive”.
For Cc1ccc2c(c1)Nc1ccccc1C(=O)N2 [NSC 202050], the “AC50 (μM)” value [1] was “inactive”.
With Cl.N[C@@H](Cc1c[nH]c2ccccc12)C(=O)OCc1ccccc1 [NSC 202376] the “AC50 (μM)” value [1] was “inactive”.
In the case of Cc1nc(N)[nH]c(=O)c1CCCNc1cccc(C(F)(F)F)c1 [NSC 210448], the “AC50 (μM)” value [1] is reported as “inactive”.
In the case of O=c1[nH]cc(Cc2cccc(OCc3ccccc3)c2)c(=O)[nH]1 [NSC 210777], the “AC50 (μM)” value [1] is reported as “inactive”.

Source: publication PMC12621200, “Giving an Enzyme Scissors: Serotonin Derivatives as Potent Organocatalytic Switches for DNA Repair Enzyme OGG1” (Journal of Medicinal Chemistry, 2025)
